Assays:
[1] = test system: KARPAS-422; assay: Induction of apoptosis in human KARPAS-422 cells assessed as viable cells at 2.5 nM incubated for 72 hrs again compound diluted in growth medium measured after 96 hrs by annexin-V FITC and propidium iodide based flow cytometry analysis (reference value: 95.57%); type: functional; conditions: time 168 hrs, read-out: Activity
[2] = test system: KARPAS-422; assay: Induction of apoptosis in human KARPAS-422 cells assessed as late apoptotic cells at 5 nM incubated for 72 hrs again compound diluted in growth medium measured after 96 hrs by annexin-V FITC and propidium iodide based flow cytometry analysis (reference value: 0.74%); type: functional; conditions: time 168 hrs
[3] = test system: KARPAS-422; assay: Induction of cell cycle arrest in human KARPAS-422 cells assessed as accumulation of cells at G2 phase at 10 nM incubated for 72 hrs again compound diluted in growth medium measured after 96 hrs by propidium iodide staining based flow cytometry analysis (reference value: 16.41%); type: functional; conditions: time 168 hrs
[4] = Metabolic stability in human liver microsomes assessed as half life at 1 uM measured upto 60 mins in presence of NADPH by LC-MS/MS analysis; type: ADME, Microsome
[5] = test system: KARPAS-422; assay: Induction of apoptosis in human KARPAS-422 cells incubated for 72 hrs again compound diluted in growth medium measured after 96 hrs by annexin-V FITC and propidium iodide based flow cytometry analysis; type: functional, cell-based; conditions: dose 2.5-20 nM, time 168.0 hrs
[6] = test system: KARPAS-422; assay: Induction of apoptosis in human KARPAS-422 cells assessed as late apoptotic cells at 5 nM incubated for 72 hrs again compound diluted in growth medium measured after 96 hrs by annexin-V FITC and propidium iodide based flow cytometry analysis (reference value: […]%); type: functional; conditions: time 168 hrs
[7] = test system: KARPAS-422; assay: Induction of apoptosis in human KARPAS-422 cells assessed as early apoptotic cells at 20 nM incubated for 72 hrs again compound diluted in growth medium measured after 96 hrs by annexin-V FITC and propidium iodide based flow cytometry analysis (reference value: 2.62%); type: functional; conditions: time 168 hrs
[8] = test system: KARPAS-422; assay: Induction of cell cycle arrest in human KARPAS-422 cells assessed as accumulation of cells at S phase at 20 nM incubated for 72 hrs again compound diluted in growth medium measured after 96 hrs by propidium iodide staining based flow cytometry analysis (reference value: 35.89%); type: functional; conditions: time 168 hrs
[9] = test system: KARPAS-422; assay: Induction of cell cycle arrest in human KARPAS-422 cells assessed as accumulation of cells at G2 phase at 2.5 nM incubated for 72 hrs again compound diluted in growth medium measured after 96 hrs by propidium iodide staining based flow cytometry analysis (reference value: 16.41%); type: functional; conditions: time 168 hrs
[10] = test system: KARPAS-422; assay: Induction of cell cycle arrest in human KARPAS-422 cells assessed as accumulation of cells at S phase at 5 nM incubated for 72 hrs again compound diluted in growth medium measured after 96 hrs by propidium iodide staining based flow cytometry analysis (reference value: 35.89%); type: functional; conditions: time 168 hrs
[11] = test system: KARPAS-422; assay: Induction of apoptosis in human KARPAS-422 cells assessed as early apoptotic cells at 10 nM incubated for 72 hrs again compound diluted in growth medium measured after 96 hrs by annexin-V FITC and propidium iodide based flow cytometry analysis (reference value: 2.62%); type: functional; conditions: time 168 hrs
[12] = Metabolic stability in human liver microsomes assessed as intrinsic clearance at 1 uM measured upto 60 mins in presence of NADPH by LC-MS/MS analysis; type: ADME, Microsome; conditions: read-out: CLH
[13] = test system: KARPAS-422; assay: Induction of cell cycle arrest in human KARPAS-422 cells assessed as accumulation of cells at G2 phase at 20 nM incubated for 72 hrs again compound diluted in growth medium measured after 96 hrs by propidium iodide staining based flow cytometry analysis (reference value: 16.41%); type: functional; conditions: time 168 hrs
[14] = test system: KARPAS-422; assay: Induction of apoptosis in human KARPAS-422 cells assessed as late apoptotic cells at 2.5 nM incubated for 72 hrs again compound diluted in growth medium measured after 96 hrs by annexin-V FITC and propidium iodide based flow cytometry analysis (reference value: 0.74%); type: functional; conditions: time 168 hrs
[15] = test system: KARPAS-422; assay: Induction of apoptosis in human KARPAS-422 cells assessed as viable cells at 10 nM incubated for 72 hrs again compound diluted in growth medium measured after 96 hrs by annexin-V FITC and propidium iodide based flow cytometry analysis (reference value: 95.57%); type: functional; conditions: time 168 hrs, read-out: Activity
[16] = test system: KARPAS-422; assay: Induction of cell cycle arrest in human KARPAS-422 cells assessed as accumulation of cells at G1 phase at 10 nM incubated for 72 hrs again compound diluted in growth medium measured after 96 hrs by propidium iodide staining based flow cytometry analysis (reference value: 47.71%); type: functional; conditions: time 168 hrs
[17] = test system: KARPAS-422; assay: Induction of apoptosis in human KARPAS-422 cells assessed as late apoptotic cells at 20 nM incubated for 72 hrs again compound diluted in growth medium measured after 96 hrs by annexin-V FITC and propidium iodide based flow cytometry analysis (reference value: […]%); type: functional; conditions: time 168 hrs
[18] = test system: KARPAS-422; assay: Antiproliferative activity against human KARPAS-422 cells assessed as inhibition of cell growth measured after 72 hrs by CCK-8 method; type: functional, cell-based; conditions: KARPAS-422, 72 h
[19] = test system: KARPAS-422; assay: Induction of cell cycle arrest in human KARPAS-422 cells assessed as accumulation of cells at S phase at 2.5 nM incubated for 72 hrs again compound diluted in growth medium measured after 96 hrs by propidium iodide staining based flow cytometry analysis (reference value: 35.89%); type: functional; conditions: time 168 hrs
[20] = test system: KARPAS-422; assay: Induction of apoptosis in human KARPAS-422 cells assessed as viable cells at 5 nM incubated for 72 hrs again compound diluted in growth medium measured after 96 hrs by annexin-V FITC and propidium iodide based flow cytometry analysis (reference value: 95.57%); type: functional; conditions: time 168 hrs, read-out: Activity
[21] = Inhibition of EZH2 Y641N mutant (unknown origin) preincubated for 15 mins followed by substrate addition and measured after 45 mins by AlphaLISA assay; parameters: species or system Homo sapiens
[22] = test system: KARPAS-422; assay: Induction of cell cycle arrest in human KARPAS-422 cells assessed as accumulation of cells at G1 phase at 5 nM incubated for 72 hrs again compound diluted in growth medium measured after 96 hrs by propidium iodide staining based flow cytometry analysis (reference value: 47.71%); type: functional; conditions: time 168 hrs
[23] = test system: KARPAS-422; assay: Induction of cell cycle arrest in human KARPAS-422 cells assessed as accumulation of cells at S phase at 10 nM incubated for 72 hrs again compound diluted in growth medium measured after 96 hrs by propidium iodide staining based flow cytometry analysis (reference value: 35.89%); type: functional; conditions: time 168 hrs
[24] = test system: KARPAS-422; assay: Induction of apoptosis in human KARPAS-422 cells assessed as late apoptotic cells at 2.5 nM incubated for 72 hrs again compound diluted in growth medium measured after 96 hrs by annexin-V FITC and propidium iodide based flow cytometry analysis (reference value: […]%); type: functional; conditions: time 168 hrs
[25] = test system: KARPAS-422; assay: Induction of cell cycle arrest in human KARPAS-422 cells assessed as accumulation of cells at G2 phase at 5 nM incubated for 72 hrs again compound diluted in growth medium measured after 96 hrs by propidium iodide staining based flow cytometry analysis (reference value: 16.41%); type: functional; conditions: time 168 hrs
[26] = test system: KARPAS-422; assay: Induction of cell cycle arrest in human KARPAS-422 cells assessed as accumulation of cells at G1 phase at 2.5 nM incubated for 72 hrs again compound diluted in growth medium measured after 96 hrs by propidium iodide staining based flow cytometry analysis (reference value: 47.71%); type: functional; conditions: time 168 hrs
[27] = test system: KARPAS-422; assay: Induction of cell cycle arrest in human KARPAS-422 cells assessed as accumulation of cells at G1 phase at 20 nM incubated for 72 hrs again compound diluted in growth medium measured after 96 hrs by propidium iodide staining based flow cytometry analysis (reference value: 47.71%); type: functional; conditions: time 168 hrs
[28] = test system: KARPAS-422; assay: Induction of apoptosis in human KARPAS-422 cells assessed as late apoptotic cells at 10 nM incubated for 72 hrs again compound diluted in growth medium measured after 96 hrs by annexin-V FITC and propidium iodide based flow cytometry analysis (reference value: 0.74%); type: functional; conditions: time 168 hrs
[29] = test system: KARPAS-422; assay: Induction of apoptosis in human KARPAS-422 cells assessed as viable cells at 20 nM incubated for 72 hrs again compound diluted in growth medium measured after 96 hrs by annexin-V FITC and propidium iodide based flow cytometry analysis (reference value: 95.57%); type: functional; conditions: time 168 hrs, read-out: Activity
[30] = test system: KARPAS-422; assay: Induction of apoptosis in human KARPAS-422 cells assessed as late apoptotic cells at 20 nM incubated for 72 hrs again compound diluted in growth medium measured after 96 hrs by annexin-V FITC and propidium iodide based flow cytometry analysis (reference value: 0.74%); type: functional; conditions: time 168 hrs
[31] = test system: KARPAS-422; assay: Induction of apoptosis in human KARPAS-422 cells assessed as early apoptotic cells at 5 nM incubated for 72 hrs again compound diluted in growth medium measured after 96 hrs by annexin-V FITC and propidium iodide based flow cytometry analysis (reference value: 2.62%); type: functional; conditions: time 168 hrs
[32] = Inhibition of EZH2 Y641F mutant (unknown origin) preincubated for 15 mins followed by substrate addition and measured after 45 mins by AlphaLISA assay; parameters: species or system Homo sapiens
[33] = test system: KARPAS-422; assay: Induction of apoptosis in human KARPAS-422 cells assessed as late apoptotic cells at 10 nM incubated for 72 hrs again compound diluted in growth medium measured after 96 hrs by annexin-V FITC and propidium iodide based flow cytometry analysis (reference value: […]%); type: functional; conditions: time 168 hrs
[34] = test system: KARPAS-422; assay: Induction of apoptosis in human KARPAS-422 cells assessed as early apoptotic cells at 2.5 nM incubated for 72 hrs again compound diluted in growth medium measured after 96 hrs by annexin-V FITC and propidium iodide based flow cytometry analysis (reference value: 2.62%); type: functional; conditions: time 168 hrs

Structure (SMILES): CCN(c1cc(-c2ccc3c(c2)n(C)c(=O)n3C2CCN(C)CC2)cc(C(=O)NCc2c(C)cc(C)[nH]c2=O)c1C)C1CCC(N(C)C)CC1 (centres undefined)
- viability at 0.0025 µM [1]: 89.3%
- Activity [2]: 8.08%
- Activity [3]: 14.6%
- half-life at 1 µM [4]: 2.96 h
- Activity [5]: Dose-Dependent Effect
- Activity [6]: 2.96%
- Activity [7]: 7.09%
- Activity [8]: 24.24%
- Activity [9]: 16.32%
- Activity [10]: 28.46%
- Activity [11]: 7.93%
- microsomal CLint at 1 µM [12]: 7.87 µL/min/mg
- Activity [13]: 10.74%
- Activity [14]: 2.57%
- viability at 0.01 µM [15]: 81.8%
- Activity [16]: 59.1%
- Activity [17]: 6.81%
- IC50 [18]: 3.52 nM
- Activity [19]: 31.43%
- viability at 0.005 µM [20]: 86.7%
- IC50 [21]: 0.08 nM
- Activity [22]: 55.91%
- Activity [23]: 26.31%
- Activity [24]: 3.84%
- Activity [25]: 15.64%
- Activity [26]: 52.26%
- Activity [27]: 65.03%
- Activity [28]: 5.47%
- viability at 0.02 µM [29]: 73.8%
- Activity [30]: 12.28%
- Activity [31]: 2.29%
- IC50 [32]: 0.03 nM
- Activity [33]: 4.8%
- Activity [34]: 4.23%

Source: ChEMBL document CHEMBL5550123, “Discovery of novel pyridone-benzamide derivatives possessing a 1-methyl-2-benzimidazolinone moiety as potent EZH2 inhibitors for the treatment of B-cell lymphomas” (Bioorg Med Chem, 2024)
